Assay results as given in ChEMBL document CHEMBL5252585, “Structure optimization and discovery of novel compound for the treatment of insertion mutations within exon 20 of EGFR and HER2” (Bioorg Med Chem, 2023).
The source made the active and inactive calls. The calls are words filed in the database; no cut-off is given here.

Legend:
[1] = target: T1, Receptor tyrosine-protein kinase erbB-2 (Homo sapiens, UniProt P04626); test: Inhibition of HER2 (unknown origin)
[2] = Inhibition of HER2-A775-G776 ins YVMA mutant (unknown origin); set-up: species or system Homo sapiens
BaF3 [3] = test: Antiproliferative activity against mouse BAF3 cells harboring HER2-A775-G776 ins YVMA mutant after 72 hrs by celltiter-Glo luminescence assay; format: functional, cell-based; conditions: BaF3, 72 h
BaF3 [4] = test: Inhibition of HER2-A775-G776 ins YVMA mutant in mouse BaF3 cells assessed as reduction in HER2 phosphorylation incubated for 24 hrs by Western blot analysis; format: cell-based; conditions: dose 1-100 nM
BaF3 [5] = test: Inhibition of EGFR D770-N771 ins NPG mutant in mouse BaF3 cells assessed as reduction in EGFR phosphorylation at less than 1 nM incubated for 24 hrs by Western blot analysis; format: cell-based
BaF3 [6] = test: Inhibition of HER2-A775-G776 ins YVMA mutant in mouse BaF3 cells assessed as reduction in HER2 phosphorylation at less than 1 nM incubated for 24 hrs by Western blot analysis; format: cell-based
[7] = target: Voltage-gated inwardly rectifying potassium channel KCNH2 (Homo sapiens, UniProt Q12809); test: Binding affinity to human ERG; format: toxicity
[8] = target: T2, Tyrosine-protein kinase Tec (Homo sapiens) (UniProt P42680); test: Inhibition of TEC (unknown origin) at 500 nM relative to control
T2 sequence (whole entry): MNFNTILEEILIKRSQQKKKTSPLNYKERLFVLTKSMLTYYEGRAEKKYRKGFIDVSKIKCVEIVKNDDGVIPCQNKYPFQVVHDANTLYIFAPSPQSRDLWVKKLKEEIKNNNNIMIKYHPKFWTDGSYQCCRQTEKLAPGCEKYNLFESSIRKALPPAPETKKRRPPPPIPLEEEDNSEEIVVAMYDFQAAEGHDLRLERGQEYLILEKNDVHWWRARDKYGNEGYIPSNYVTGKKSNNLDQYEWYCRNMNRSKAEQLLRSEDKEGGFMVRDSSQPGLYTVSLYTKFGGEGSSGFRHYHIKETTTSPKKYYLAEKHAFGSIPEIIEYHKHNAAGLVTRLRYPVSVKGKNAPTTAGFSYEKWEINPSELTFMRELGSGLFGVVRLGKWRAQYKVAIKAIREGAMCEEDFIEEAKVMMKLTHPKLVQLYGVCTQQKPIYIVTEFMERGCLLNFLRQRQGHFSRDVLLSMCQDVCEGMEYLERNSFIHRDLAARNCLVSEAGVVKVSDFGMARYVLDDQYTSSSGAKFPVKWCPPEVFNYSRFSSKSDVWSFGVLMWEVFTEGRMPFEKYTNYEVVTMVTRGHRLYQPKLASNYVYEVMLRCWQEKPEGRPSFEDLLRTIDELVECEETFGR

[9] = Half life in Sprague-Dawley rat at 10 mg/kg, po measured upto 8 hrs by LC-MS/MS analysis; format: ADME, organism-based; conditions: in vivo
[10] = Clearance in Sprague-Dawley rat at 10 mg/kg, po measured upto 8 hrs by LC-MS/MS analysis; format: ADME, organism-based; conditions: in vivo
[11] = Oral bioavailability in Sprague-Dawley rat at 10 mg/kg measured upto 8 hrs by LC-MS/MS analysis; format: ADME, organism-based; conditions: in vivo
[12] = Cmax in Sprague-Dawley rat at 10 mg/kg, iv measured upto 8 hrs by LC-MS/MS analysis; format: ADME, organism-based; set-up: dose 10 mg/kg, time < 8 hrs, route iv; conditions: in vivo
[13] = Tmax in Sprague-Dawley rat at 10 mg/kg, iv measured upto 8 hrs by LC-MS/MS analysis; format: ADME, organism-based; conditions: in vivo
[14] = AUC(0 to t) in Sprague-Dawley rat at 10 mg/kg, iv measured upto 8 hrs by LC-MS/MS analysis; format: ADME, organism-based; set-up: dose 10 mg/kg, time < 8 hrs, route iv; conditions: in vivo
BaF3 [15] = test: Antitumor activity against mouse BaF3 cells implanted in BALB/c mouse harboring EGFR D770-N771 ins NPG mutant assessed as tumor growth inhibition at 20 mg/kg, po administered once daily for 13 to 14 days; format: functional; conditions: time 13-14 day, read-out: TGI
BaF3 [16] = test: Antitumor activity against mouse BaF3 cells implanted in BALB/c mouse harboring HER2-A775-G776 ins YVMA mutant assessed as tumor growth inhibition at 10 mg/kg, po administered once daily for 13 to 14 days; format: functional; conditions: time 13-14 day, read-out: TGI
[17] = Toxicity in BALB/c mouse harboring EGFR D770-N771 ins NPG mutant implanted with mouse BaF3 cells assessed as change in body weight at 10 to 20 mg/kg, po administered once daily for 13 to 14 days; format: organism-based; conditions: in vivo, dose lower 10 mg/kg, time lower 13 day, dose upper 20 mg/kg, time upper 14 day
[18] = Toxicity in BALB/c mouse harboring HER2-A775-G776 ins YVMA mutant implanted with mouse BaF3 cells assessed as change in body weight at 10 to 20 mg/kg, po administered once daily for 13 to 14 days; format: organism-based; conditions: in vivo, dose lower 10 mg/kg, time lower 13 day, dose upper 20 mg/kg, time upper 14 day
BaF3 [19] = test: In vivo inhibition of EGFR D770-N771 ins NPG mutant in BALB/c mouse implanted with mouse BaF3 cells assessed as reduction in EGFR phosphorylation at 10 to 20 mg/kg, po administered once daily for 13 to 14 days by Western blot analysis; format: functional, organism-based; conditions: dose 10-20 mg/kg, time 13-14 day
BaF3 [20] = test: In vivo inhibition of HER2-A775-G776 ins YVMA mutant in BALB/c mouse implanted with mouse BaF3 cells assessed as reduction in HER2 phosphorylation at 10 to 20 mg/kg, po administered once daily for 13 to 14 days by Western blot analysis; format: functional, organism-based; conditions: dose 10-20 mg/kg, time 13-14 day
[21] = target: T1, Receptor tyrosine-protein kinase erbB-2; conditions: dose 500.0 nM
Description: Inhibition of HER2 (unknown origin) at 500 nM relative to control

T1 sequence (P04626 whole entry): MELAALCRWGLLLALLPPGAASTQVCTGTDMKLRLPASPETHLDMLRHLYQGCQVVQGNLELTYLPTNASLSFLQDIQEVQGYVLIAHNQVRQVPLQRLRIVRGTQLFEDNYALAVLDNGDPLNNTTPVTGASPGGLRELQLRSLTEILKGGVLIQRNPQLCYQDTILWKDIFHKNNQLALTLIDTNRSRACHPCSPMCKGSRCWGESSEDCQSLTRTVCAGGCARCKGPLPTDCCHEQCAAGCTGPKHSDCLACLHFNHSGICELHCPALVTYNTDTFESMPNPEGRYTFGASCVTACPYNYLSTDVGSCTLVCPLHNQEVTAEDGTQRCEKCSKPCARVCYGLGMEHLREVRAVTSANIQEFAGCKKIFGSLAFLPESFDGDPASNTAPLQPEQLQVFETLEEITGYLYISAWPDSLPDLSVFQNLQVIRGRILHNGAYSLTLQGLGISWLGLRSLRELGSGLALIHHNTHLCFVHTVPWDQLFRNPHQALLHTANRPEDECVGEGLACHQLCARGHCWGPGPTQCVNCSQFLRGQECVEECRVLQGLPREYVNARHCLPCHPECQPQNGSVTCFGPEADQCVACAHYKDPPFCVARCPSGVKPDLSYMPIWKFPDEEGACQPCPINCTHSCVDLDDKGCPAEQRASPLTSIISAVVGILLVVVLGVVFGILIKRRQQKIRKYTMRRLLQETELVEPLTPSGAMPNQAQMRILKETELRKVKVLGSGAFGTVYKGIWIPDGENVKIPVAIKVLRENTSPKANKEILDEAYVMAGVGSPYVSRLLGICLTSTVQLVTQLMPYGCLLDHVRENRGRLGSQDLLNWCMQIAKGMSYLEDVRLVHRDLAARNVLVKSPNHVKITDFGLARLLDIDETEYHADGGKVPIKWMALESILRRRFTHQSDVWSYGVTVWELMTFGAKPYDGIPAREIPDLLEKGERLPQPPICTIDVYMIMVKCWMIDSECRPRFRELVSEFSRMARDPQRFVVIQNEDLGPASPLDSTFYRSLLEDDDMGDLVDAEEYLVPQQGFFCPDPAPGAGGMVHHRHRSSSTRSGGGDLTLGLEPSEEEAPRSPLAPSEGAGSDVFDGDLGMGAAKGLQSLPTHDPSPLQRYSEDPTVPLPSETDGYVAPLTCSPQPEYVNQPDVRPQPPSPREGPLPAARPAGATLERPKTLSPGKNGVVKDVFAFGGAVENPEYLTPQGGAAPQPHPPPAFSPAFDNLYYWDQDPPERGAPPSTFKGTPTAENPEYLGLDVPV
Sequence of Voltage-gated inwardly rectifying potassium channel KCNH2 (Q12809 whole entry): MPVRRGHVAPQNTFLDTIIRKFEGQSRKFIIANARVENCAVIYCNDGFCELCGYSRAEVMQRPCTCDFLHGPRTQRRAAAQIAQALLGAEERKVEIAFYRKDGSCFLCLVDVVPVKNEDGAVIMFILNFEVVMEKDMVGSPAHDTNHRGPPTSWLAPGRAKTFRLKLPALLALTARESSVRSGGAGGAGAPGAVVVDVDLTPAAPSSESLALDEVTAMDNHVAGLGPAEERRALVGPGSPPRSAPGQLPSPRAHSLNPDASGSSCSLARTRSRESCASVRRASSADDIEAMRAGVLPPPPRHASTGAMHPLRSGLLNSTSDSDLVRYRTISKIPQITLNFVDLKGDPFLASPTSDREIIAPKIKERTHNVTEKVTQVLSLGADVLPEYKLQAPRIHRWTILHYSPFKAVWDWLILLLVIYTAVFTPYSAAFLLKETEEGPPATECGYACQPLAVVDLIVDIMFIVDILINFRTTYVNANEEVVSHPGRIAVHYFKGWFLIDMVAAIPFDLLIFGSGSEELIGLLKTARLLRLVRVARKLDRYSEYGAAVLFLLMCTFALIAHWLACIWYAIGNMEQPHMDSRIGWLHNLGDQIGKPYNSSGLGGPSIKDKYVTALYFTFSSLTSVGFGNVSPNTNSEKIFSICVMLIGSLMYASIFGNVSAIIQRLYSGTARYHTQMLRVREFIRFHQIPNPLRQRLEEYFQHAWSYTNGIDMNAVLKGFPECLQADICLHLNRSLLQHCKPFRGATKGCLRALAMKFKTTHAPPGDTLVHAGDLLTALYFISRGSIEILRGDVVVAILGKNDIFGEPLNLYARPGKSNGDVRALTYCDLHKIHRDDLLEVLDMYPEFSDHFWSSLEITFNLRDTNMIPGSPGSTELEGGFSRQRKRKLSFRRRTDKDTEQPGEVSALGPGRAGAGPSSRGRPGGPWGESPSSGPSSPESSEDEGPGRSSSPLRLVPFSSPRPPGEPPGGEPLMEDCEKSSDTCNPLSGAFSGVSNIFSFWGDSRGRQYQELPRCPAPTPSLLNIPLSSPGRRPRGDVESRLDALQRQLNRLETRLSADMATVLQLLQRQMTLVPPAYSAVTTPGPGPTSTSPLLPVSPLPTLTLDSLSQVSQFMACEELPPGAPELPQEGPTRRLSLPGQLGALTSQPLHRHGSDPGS

IC50 [1]: 1.42 nM
IC50 [2]: 0.92 nM
IC50 (BaF3 [3]): 0.95 nM
inhibition [8]: > 20%
half-life [9]: 6.93 h
CL/F [10]: 2.96 mL/min
bioavailability [11]: 68%
Cmax [12]: 8270 ng/mL
Tmax [13]: 4.98 min
AUC(0-t) at 8 h [14]: 13900 ng·h/mL
inhibition [21]: 100%
Structure (SMILES): C=CC(=O)N1CCC(Oc2cc3c(Nc4cccc(Cl)c4F)ncnc3cc2O[C@H]2CCOC2)CC1
inhibition (BaF3 [4]): Dose-Dependent Effect
inhibition (BaF3 [5]): Active
inhibition (BaF3 [6]): Active
IC50 [7]: > 15000 nM
inhibition in vivo at 20 mg/kg (BaF3 [15]): 83%
inhibition in vivo at 10 mg/kg (BaF3 [16]): 75%
Activity [17]: Non-Toxic
Activity [18]: Non-Toxic
inhibition (BaF3 [19]): Active
inhibition (BaF3 [20]): Active
